This note sets out measurements from US20230072683A1, “PYRIDO-PYRIMIDIN DERIVATIVES AND PHARMACEUTICAL COMPOSITION, FOR USE IN PREVENTING OR TREATING PI3 KINASE RELATED DISEASES, COMPRISING SAME AS ACTIVE INGREDIENT” (BORYUNG PHARMACEUTICAL CO., LTD, priority 2019, published 2023).

Assay [1] has as its target PI3K-δ (PI3K(p1108/p857) (h)) (Homo sapiens, UniProt O00329). Nature of the assay: Evaluation of inhibitory activity against PI3K-δ (HTRF kinase assay). The note with it: for inhibition at 0.01 µM: compound concentration 0.01 μM, read-out: EXP_VALUE(% Inhibition) PI3K-δ 0.01 μM; for inhibition at 0.1 µM: compound concentration 0.1 μM, read-out: EXP_VALUE(% Inhibition) PI3K-δ 0.1 μM. It is filed as biochemical. A digest of the protocol:
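HTRF read-out (665/620 nm ratio ×10000) used Eu-labelled anti-GST, GST-tagged GRP1 PH domain and streptavidin-allophycocyanin after EDTA/PIP3 stop.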
For orientation: In TR-FRET formats the signal depends on donor and acceptor labels being close together.

Assay [2] has as its target DNA-PK(h) (Homo sapiens, UniProt P78527). The experiment in a line: Evaluation of inhibitory activity against DNA-PK (HTRF kinase assay, GST-cMyc-p53 substrate). The note with it: for inhibition at 0.01 µM: compound concentration 0.01 μM, read-out: EXP_VALUE(% Inhibition) DNA-PK(h) 0.01 μM; for inhibition at 0.1 µM: compound concentration 0.1 μM, read-out: EXP_VALUE(% Inhibition) DNA-PK(h) 0.1 μM. It is filed as biochemical. In a few lines: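 Human DNA-PK with 50 μM GST-cMyc-p53 substrate; reaction started with Mg/ATP, run 30 min at room temperature, stopped with EDTA. Phospho-Ser15 p53 detected by HTRF (Eu anti-phospho-Ser15, d2 anti-GST), signal = 10000×(Em 665/Em 620).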

Chain of PI3K-δ (PI3K(p1108/p857) (h)) (O00329 whole entry, the tested form may be a part): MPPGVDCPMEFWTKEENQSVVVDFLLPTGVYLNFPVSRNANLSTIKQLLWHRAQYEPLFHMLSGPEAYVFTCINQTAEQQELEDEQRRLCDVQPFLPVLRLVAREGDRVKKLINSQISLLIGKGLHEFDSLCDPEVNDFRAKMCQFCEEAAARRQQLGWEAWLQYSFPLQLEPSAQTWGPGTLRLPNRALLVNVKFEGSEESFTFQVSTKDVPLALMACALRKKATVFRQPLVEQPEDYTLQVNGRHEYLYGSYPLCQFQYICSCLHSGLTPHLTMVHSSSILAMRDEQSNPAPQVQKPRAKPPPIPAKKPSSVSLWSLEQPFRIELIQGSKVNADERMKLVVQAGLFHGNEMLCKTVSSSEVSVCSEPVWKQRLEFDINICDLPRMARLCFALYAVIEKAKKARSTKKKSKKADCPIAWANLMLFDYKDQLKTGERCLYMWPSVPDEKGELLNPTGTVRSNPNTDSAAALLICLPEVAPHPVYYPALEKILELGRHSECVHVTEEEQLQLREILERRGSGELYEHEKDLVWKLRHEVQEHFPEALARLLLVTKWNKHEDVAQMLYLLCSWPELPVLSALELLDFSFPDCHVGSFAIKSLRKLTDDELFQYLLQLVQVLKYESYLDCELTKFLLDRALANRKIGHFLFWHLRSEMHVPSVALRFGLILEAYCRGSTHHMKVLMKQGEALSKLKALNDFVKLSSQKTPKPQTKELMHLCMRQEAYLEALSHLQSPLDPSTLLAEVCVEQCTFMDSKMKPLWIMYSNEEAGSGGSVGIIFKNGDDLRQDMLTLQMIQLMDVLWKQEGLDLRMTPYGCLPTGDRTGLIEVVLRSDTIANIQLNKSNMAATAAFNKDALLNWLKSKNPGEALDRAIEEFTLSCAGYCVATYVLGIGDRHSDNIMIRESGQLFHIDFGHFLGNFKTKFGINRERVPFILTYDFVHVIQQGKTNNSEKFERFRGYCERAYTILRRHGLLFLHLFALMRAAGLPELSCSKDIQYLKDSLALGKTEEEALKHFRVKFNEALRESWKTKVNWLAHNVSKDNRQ
Chain of PI3K-δ (PI3K(p1108/p857) (h)) (P27986 whole entry partner, the tested form may be a part): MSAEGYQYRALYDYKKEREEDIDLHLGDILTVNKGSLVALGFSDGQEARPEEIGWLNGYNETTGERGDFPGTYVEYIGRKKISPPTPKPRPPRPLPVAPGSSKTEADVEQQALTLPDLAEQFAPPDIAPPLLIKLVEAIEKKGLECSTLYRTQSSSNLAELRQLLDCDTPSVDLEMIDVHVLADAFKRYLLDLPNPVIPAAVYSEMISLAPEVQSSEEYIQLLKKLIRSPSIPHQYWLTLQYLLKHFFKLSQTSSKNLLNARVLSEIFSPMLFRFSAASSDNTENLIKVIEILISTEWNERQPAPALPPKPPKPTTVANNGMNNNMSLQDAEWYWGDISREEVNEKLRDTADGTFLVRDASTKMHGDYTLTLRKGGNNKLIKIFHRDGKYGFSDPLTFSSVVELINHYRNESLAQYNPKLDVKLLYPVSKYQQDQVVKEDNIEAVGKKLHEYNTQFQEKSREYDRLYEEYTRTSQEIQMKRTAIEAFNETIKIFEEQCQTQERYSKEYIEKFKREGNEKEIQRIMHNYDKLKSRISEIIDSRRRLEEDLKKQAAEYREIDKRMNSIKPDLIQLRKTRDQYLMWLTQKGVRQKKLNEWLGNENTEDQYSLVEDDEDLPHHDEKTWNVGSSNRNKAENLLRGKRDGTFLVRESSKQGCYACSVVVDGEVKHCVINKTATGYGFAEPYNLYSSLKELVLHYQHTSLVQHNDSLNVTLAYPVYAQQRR

The inhibition is the drop in the measured response relative to a control, in per cent. In the case of `C[C@H](Nc1ncnc2[nH]ccc(=O)c12)c1c(Cl)c2cccc(C#Cc3ccccc3)c2c(=O)n1-c1ccccc1` [Example 305, (S)-4-((1-(4-chloro-1-oxo-2-phenyl-8-(phenylethynyl)-1,2-dihydroisoquinolin-3-yl)ethyl)amino)pyrido[2,3-d]pyrimidin-5(8H)-one], in assay [1], the inhibition at 0.01 µM worked out at 83% and the inhibition at 0.1 µM worked out at 99%. Moreover, in assay [2], the inhibition at 0.01 µM was 20% and the inhibition at 0.1 µM came to 62%.
As for `C[C@H](Nc1ncnc2[nH]ccc(=O)c12)c1c(Cl)c2cccc(C#Cc3ccncc3)c2c(=O)n1-c1ccccc1` [Example 306, (S)-4-((1-(4-chloro-1-oxo-2-phenyl-8-(pyridin-4-ylethynyl)-1,2-dihydroisoquinolin-3-yl)ethyl)amino)pyrido[2,3-d]pyrimidin-5(8H)-one], in assay [1], the inhibition at 0.01 µM came out at 57% and the inhibition at 0.1 µM was 105%. For the same compound, in assay [2], the inhibition at 0.01 µM turned out to be 75% and the inhibition at 0.1 µM stood at 95%.
As for `C[C@H](Nc1ncnc2[nH]ccc(=O)c12)c1c(Cl)c2cccc(C#Cc3cccnc3)c2c(=O)n1-c1ccccc1` [Example 307, (S)-4-((1-(4-chloro-1-oxo-2-phenyl-8-(pyridin-3-ylethynyl)-1,2-dihydroisoquinolin-3-yl)ethyl)amino)pyrido[2,3-d]pyrimidin-5(8H)-one], in assay [1], the inhibition at 0.01 µM is 83% and the inhibition at 0.1 µM was 114%. Besides, in assay [2], the inhibition at 0.01 µM is 80% and the inhibition at 0.1 µM was found to be 95%.
With `C[C@H](Nc1ncnc2[nH]ccc(=O)c12)c1c(Cl)c2cccc(C#Cc3ccccn3)c2c(=O)n1-c1ccccc1` [Example 308, (S)-4-((1-(4-chloro-1-oxo-2-phenyl-8-(pyridin-2-ylethynyl)-1,2-dihydroisoquinolin-3-yl)ethyl)amino)pyrido[2,3-d]pyrimidin-5(8H)-one], in assay [1], the inhibition at 0.01 µM stood at 28.4% and the inhibition at 0.1 µM amounted to 60.3%. Moreover, in assay [2], the inhibition at 0.01 µM is 21.5% and the inhibition at 0.1 µM stood at 70.3%.
Turning to `C[C@H](Nc1ncnc2[nH]ccc(=O)c12)c1c(Cl)c2cccc(C#Cc3cnn(C)c3)c2c(=O)n1-c1ccccc1` [Example 309, (S)-4-((1-(4-chloro-8-((1-methyl-1H-pyrazol-4-yl)ethynyl)-1-oxo-2-phenyl-1,2-dihydroisoquinolin-3-yl)ethyl)amino)pyrido[2,3-d]pyrimidin-5(8H)-one], in assay [1], the inhibition at 0.01 µM stood at 42.4% and the inhibition at 0.1 µM was 65.6%. Further, in assay [2], the inhibition at 0.01 µM came to 23.2% and the inhibition at 0.1 µM is 64.8%.
Regarding `C[C@H](Nc1ncnc2[nH]ccc(=O)c12)c1c(Cl)c2cccc(C#Cc3ccc(-c4ccccc4)cc3)c2c(=O)n1-c1ccccc1` [Example 310, (S)-4-((1-(8-([1,1′-biphenyl]-4-ylethynyl)-4-chloro-1-oxo-2-phenyl-1,2-dihydroisoquinolin-3-yl)ethyl)amino)pyrido[2,3-d]pyrimidin-5(8H)-one], in assay [1], the inhibition at 0.01 µM was 31.5% and the inhibition at 0.1 µM is 20.4%. Also, in assay [2], the inhibition at 0.01 µM is -2.5% and the inhibition at 0.1 µM worked out at 3.2%.
The corresponding values for `C[C@H](Nc1ncnc2[nH]ccc(=O)c12)c1c(Cl)c2cccc(C#Cc3ccnn3C)c2c(=O)n1-c1ccccc1` [Example 311, (S)-4-((1-(4-chloro-8-((1-methyl-1H-pyrazol-5-yl)ethynyl)-1-oxo-2-phenyl-1,2-dihydroisoquinolin-3-yl)ethyl)amino)pyrido[2,3-d]pyrimidin-5(8H)-one] are 18.2%, 39.5%, 47.1% and 82.2%.
On to `C[C@H](Nc1ncnc2[nH]ccc(=O)c12)c1c(Cl)c2cccc(C#Cc3nccs3)c2c(=O)n1-c1ccccc1` [Example 312, (S)-4-((1-(4-chloro-1-oxo-2-phenyl-8-(thiazol-2-ylethynyl)-1,2-dihydroisoquinolin-3-yl)ethyl)amino)pyrido[2,3-d]pyrimidin-5(8H)-one], for which, in assay [1], the inhibition at 0.01 µM was determined as 46.8% and the inhibition at 0.1 µM was 77.1%. In assay [2], the inhibition at 0.01 µM is 39.8% and the inhibition at 0.1 µM was 84.3%.
With `C[C@H](Nc1ncnc2[nH]ccc(=O)c12)c1c(Cl)c2cccc(C#Cc3cncs3)c2c(=O)n1-c1ccccc1` [Example 313, (S)-4-((1-(4-chloro-1-oxo-2-phenyl-8-(thiazol-5-ylethynyl)-1,2-dihydroisoquinolin-3-yl)ethyl)amino)pyrido[2,3-d]pyrimidin-5(8H)-one], the inhibition at 0.01 µM in assay [1] turned out to be 20.2%; in assay [2] it was 47.2%. Besides, the figures for the inhibition at 0.1 µM in assay [1] and in assay [2] were 55% and 84.6%, respectively.
On to `C[C@H](Nc1ncnc2[nH]ccc(=O)c12)c1c(Cl)c2cccc(C#Cc3ccc(N(C)C)cc3)c2c(=O)n1-c1ccccc1` [Example 314, (S)-4-((1-(4-chloro-8-((4-(dimethylamino)phenyl)ethynyl)-1-oxo-2-phenyl-1,2-dihydroisoquinolin-3-yl)ethyl)amino)-5-oxo-5,8-dihydropyrido[2,3-d]pyrimidin-5(8H)-one], for which, in assay [1], the inhibition at 0.01 µM was 76% and the inhibition at 0.1 µM was found to be 96%. In addition, in assay [2], the inhibition at 0.01 µM came to 25% and the inhibition at 0.1 µM was determined as 75%.
The matching figures for `C[C@H](Nc1ncnc2[nH]ccc(=O)c12)c1c(Cl)c2cccc(C#Cc3ccc(C(F)(F)F)cc3)c2c(=O)n1-c1ccccc1` [Example 315, (S)-4-((1-(4-chloro-1-oxo-2-phenyl-8-((4-(trifluoromethyl)phenyl)ethynyl)-1,2-dihydroisoquinolin-3-yl)ethyl)amino)-5-oxo-5,8-dihydropyrido[2,3-d]pyrimidin-5(8H)-one, 2,2,2-trifluoroacetate]: 39%, 89%, 18% and 62%.
The corresponding values for `C[C@H](Nc1ncnc2[nH]ccc(=O)c12)c1c(Cl)c2cccc(C#Cc3cncnc3)c2c(=O)n1-c1ccccc1` [Example 316, (S)-4-((1-(4-chloro-1-oxo-2-phenyl-8-(pyrimidin-5-ylethynyl)-1,2-dihydroisoquinolin-3-yl)ethyl)amino)pyrido[2,3-d]pyrimidin-5(8H)-one] are 43%, 91%, 88% and 99%.
As for `C[C@H](Nc1ncnc2[nH]ccc(=O)c12)c1c(Cl)c2cccc(-c3nc4ccccc4o3)c2c(=O)n1-c1ccccc1` [Example 317, (S)-4-((1-(8-(benzo[d]oxazol-2-yl)-4-chloro-1-oxo-2-phenyl-1,2-dihydroisoquinolin-3-yl)ethyl)amino)pyrido[2,3-d]pyrimidin-5(8H)-one], the inhibition at 0.01 µM in assay [1] amounted to 45%; in assay [2], 64%. For the same compound, the values for the inhibition at 0.1 µM in assay [1] and in assay [2] were 86% and 96%, respectively.
Take `C[C@H](Nc1ncnc2[nH]ccc(=O)c12)c1cc2cccc(-c3nc4ccccc4o3)c2c(=O)n1-c1ccccc1` [Example 318, (S)-4-((1-(8-(benzo[d]oxazol-2-yl)-1-oxo-2-phenyl-1,2-dihydroisoquinolin-3-yl)ethyl)amino)pyrido[2,3-d]pyrimidin-5(8H)-one]: in assay [1], the inhibition at 0.01 µM was 23% and the inhibition at 0.1 µM was 65%. Moreover, in assay [2], the inhibition at 0.01 µM was found to be 19% and the inhibition at 0.1 µM stood at 35%.
